Source: ChEMBL document CHEMBL3272271, “Folate antagonists. 13. 2,4-Diamino-6-](alpha,alpha,alpha-trifluoro-m-tolyl)thio]quinazoline and related 2,4-diamino-6-[(phenyl- and naphthyl)thio]quinazolines, a unique class of antimetabolites with extraordinary antimalarial and antibacterial effects” (J Med Chem, 1978)
≈ marks a conversion by molar mass, not a printed value. Calls of active or inactive are those of the source. No cut-off for these calls is given here.

What was measured:
Plasmodium gallinaceum [1] = assay: Antimalarial activity against trophozoite-induced Plasmodium gallinaceum infected in white leghorn chicken assessed as disease cure from parasite infection at 100 mg/kg, sc administered 72 hrs after infection; format: functional, organism-based; parameters: dose 100 mg/kg
Plasmodium berghei [2] = assay: Antimalarial activity against Plasmodium berghei infected in mouse assessed as increase in mean survival days of host at 20 mg/kg, sc administered 72 hrs after infection relative to control; format: functional; settings: route subcutaneous
Plasmodium berghei [3] = assay: Antimalarial activity against Plasmodium berghei infected in mouse assessed as increase in mean survival days of host at 10 mg/kg, sc administered 72 hrs after infection relative to control; format: functional; settings: route subcutaneous
Plasmodium berghei [4] = assay: Antimalarial activity against chloroquine-resistant Plasmodium berghei assessed as drug resistance; format: functional, organism-based
Plasmodium berghei [5] = assay: Antimalarial activity against cycloguanil-resistant Plasmodium berghei assessed as drug resistance; format: functional, organism-based
Plasmodium berghei [6] = assay: Antimalarial activity against Plasmodium berghei infected in mouse assessed as increase in mean survival days of host at 5 mg/kg, sc administered 72 hrs after infection relative to control; format: functional; settings: route subcutaneous
Plasmodium berghei [7] = assay: Antimalarial activity against Plasmodium berghei infected in mouse assessed as increase in mean survival days of host at 2.5 mg/kg, sc administered 72 hrs after infection relative to control; format: functional; settings: route subcutaneous
Plasmodium berghei [8] = assay: Antimalarial activity against Plasmodium berghei infected in mouse assessed as increase in mean survival days of host at 1.25 mg/kg, sc administered 72 hrs after infection relative to control; format: functional; settings: route subcutaneous
Plasmodium berghei [9] = assay: Antimalarial activity against Plasmodium berghei infected in mouse assessed as disease cure from parasite infection at 640 mg/kg, sc administered 72 hrs after infection; format: functional, organism-based; parameters: dose 640 mg/kg
Plasmodium berghei [10] = assay: Antimalarial activity against Plasmodium berghei infected in mouse assessed as disease cure from parasite infection at 320 mg/kg, sc administered 72 hrs after infection; format: functional, organism-based; parameters: dose 320 mg/kg
Plasmodium berghei [11] = assay: Antimalarial activity against Plasmodium berghei infected in mouse assessed as disease cure from parasite infection at 160 mg/kg, sc administered 72 hrs after infection; format: functional, organism-based; parameters: dose 160 mg/kg
Plasmodium berghei [12] = assay: Antimalarial activity against Plasmodium berghei infected in mouse assessed as disease cure from parasite infection at 80 mg/kg, sc administered 72 hrs after infection; format: functional, organism-based; parameters: dose 80 mg/kg
Plasmodium berghei [13] = assay: Antimalarial activity against Plasmodium berghei infected in mouse assessed as disease cure from parasite infection at 40 mg/kg, sc administered 72 hrs after infection; format: functional, organism-based; parameters: dose 40 mg/kg
Plasmodium berghei [14] = assay: Antimalarial activity against Plasmodium berghei infected in mouse assessed as disease cure from parasite infection at 20 mg/kg, sc administered 72 hrs after infection; format: functional, organism-based; parameters: dose 20 mg/kg
Plasmodium berghei [15] = assay: Antimalarial activity against Plasmodium berghei infected in mouse assessed as disease cure from parasite infection at 10 mg/kg, sc administered 72 hrs after infection; format: functional, organism-based; parameters: dose 10 mg/kg
Plasmodium gallinaceum [16] = assay: Antimalarial activity against trophozoite-induced Plasmodium gallinaceum infected in white leghorn chicken assessed as increase in mean survival days of host at 100 mg/kg, sc administered 72 hrs after infection relative to control; format: functional; settings: route subcutaneous
Plasmodium gallinaceum [17] = assay: Antimalarial activity against trophozoite-induced Plasmodium gallinaceum infected in white leghorn chicken assessed as disease cure from parasite infection at 320 mg/kg, sc administered 72 hrs after infection; format: functional, organism-based; parameters: dose 320 mg/kg
Plasmodium gallinaceum [18] = assay: Antimalarial activity against trophozoite-induced Plasmodium gallinaceum infected in white leghorn chicken assessed as disease cure from parasite infection at 160 mg/kg, sc administered 72 hrs after infection; format: functional, organism-based; parameters: dose 160 mg/kg
Plasmodium gallinaceum [19] = assay: Antimalarial activity against trophozoite-induced Plasmodium gallinaceum infected in white leghorn chicken assessed as disease cure from parasite infection at 80 mg/kg, sc administered 72 hrs after infection; format: functional, organism-based; parameters: dose 80 mg/kg
Plasmodium gallinaceum [20] = assay: Antimalarial activity against trophozoite-induced Plasmodium gallinaceum infected in white leghorn chicken assessed as increase in mean survival days of host at 120 mg/kg, sc administered 72 hrs after infection relative to control; format: functional; settings: route subcutaneous
Plasmodium gallinaceum [21] = assay: Antimalarial activity against sporozoite-induced Plasmodium gallinaceum infected in white leghorn chicken assessed as disease cure from parasite infection at 480 mg/kg, sc administered 72 hrs after infection; format: functional, organism-based; parameters: dose 480 mg/kg
Plasmodium gallinaceum [22] = assay: Antimalarial activity against sporozoite-induced Plasmodium gallinaceum infected in white leghorn chicken assessed as disease cure from parasite infection at 320 mg/kg, sc administered 72 hrs after infection; format: functional, organism-based; parameters: dose 320 mg/kg
Gallus gallus = assay: Toxicity in sporozoite-induced Plasmodium gallinaceum infected white leghorn chicken assessed as mortality at 480 mg/kg, sc administered 72 hrs after infection measured up to 6 days; format: organism-based; parameters: dose 480 mg/kg, route subcutaneous; settings: in vivo
Plasmodium gallinaceum [23] = assay: Antimalarial activity against sporozoite-induced Plasmodium gallinaceum infected in white leghorn chicken assessed as disease cure from parasite infection at 240 mg/kg, sc administered 72 hrs after infection; format: functional, organism-based; parameters: dose 240 mg/kg
Plasmodium gallinaceum [24] = assay: Antimalarial activity against sporozoite-induced Plasmodium gallinaceum infected in white leghorn chicken assessed as disease cure from parasite infection at 160 mg/kg, sc administered 72 hrs after infection; format: functional, organism-based; parameters: dose 160 mg/kg
Plasmodium gallinaceum [25] = assay: Antimalarial activity against sporozoite-induced Plasmodium gallinaceum infected in white leghorn chicken assessed as disease cure from parasite infection at 120 mg/kg, sc administered 72 hrs after infection; format: functional, organism-based; parameters: dose 120 mg/kg
Plasmodium gallinaceum [26] = assay: Antimalarial activity against sporozoite-induced Plasmodium gallinaceum infected in white leghorn chicken assessed as disease cure from parasite infection at 80 mg/kg, sc administered 72 hrs after infection; format: functional, organism-based; parameters: dose 80 mg/kg
Plasmodium gallinaceum [27] = assay: Antimalarial activity against sporozoite-induced Plasmodium gallinaceum infected in white leghorn chicken assessed as disease cure from parasite infection at 60 mg/kg, sc administered 72 hrs after infection; format: functional, organism-based; parameters: dose 60 mg/kg
Plasmodium gallinaceum [28] = assay: Antimalarial activity against sporozoite-induced Plasmodium gallinaceum infected in white leghorn chicken assessed as increase in mean survival days of host at 30 mg/kg, sc administered 72 hrs after infection relative to control; format: functional; settings: route subcutaneous
Plasmodium gallinaceum [29] = assay: Antimalarial activity against sporozoite-induced Plasmodium gallinaceum infected in white leghorn chicken assessed as disease cure from parasite infection at 30 mg/kg, sc administered 72 hrs after infection; format: functional, organism-based; parameters: dose 30 mg/kg
Plasmodium gallinaceum [30] = assay: Antimalarial activity against sporozoite-induced Plasmodium gallinaceum infected in white leghorn chicken assessed as increase in mean survival days of host at 15 mg/kg, sc administered 72 hrs after infection relative to control; format: functional; settings: route subcutaneous
Plasmodium gallinaceum [31] = assay: Antimalarial activity against sporozoite-induced Plasmodium gallinaceum infected in white leghorn chicken assessed as disease cure from parasite infection at 15 mg/kg, sc administered 72 hrs after infection; format: functional, organism-based; parameters: dose 15 mg/kg
Plasmodium berghei [32] = assay: Antimalarial activity against trophozoite-induced Plasmodium berghei infected in mouse assessed as daily dose required to suppression of 90% parasite infection administered with diet for 6 days; format: functional
Plasmodium berghei [33] = assay: Ratio of quinine hydrochloride SD90 to compound SD90 for trophozoite-induced Plasmodium berghei infected in mouse assessed as daily dose required to suppression of 90% parasite infection administered with diet for 6 days; format: functional
Plasmodium gallinaceum [34] = assay: Antimalarial activity against trophozoite-induced Plasmodium gallinaceum infected in white leghorn chicken assessed as increase in mean survival days of host at 320 mg/kg, sc administered 72 hrs after infection relative to control; format: functional; settings: route subcutaneous
Plasmodium gallinaceum [35] = assay: Antimalarial activity against trophozoite-induced Plasmodium gallinaceum infected in white leghorn chicken assessed as increase in mean survival days of host at 80 mg/kg, sc administered 72 hrs after infection relative to control; format: functional; settings: route subcutaneous
Plasmodium gallinaceum [36] = assay: Antimalarial activity against trophozoite-induced Plasmodium gallinaceum infected in white leghorn chicken assessed as disease cure from parasite infection at 20 mg/kg, sc administered 72 hrs after infection; format: functional, organism-based; parameters: dose 20 mg/kg
Plasmodium gallinaceum [37] = assay: Antimalarial activity against trophozoite-induced Plasmodium gallinaceum infected in white leghorn chicken assessed as disease cure from parasite infection at 10 mg/kg, sc administered 72 hrs after infection; format: functional, organism-based; parameters: dose 10 mg/kg
Plasmodium falciparum [38] = assay: Antimalarial activity against chloroquine-susceptible, pyrimethamine-resistant Plasmodium falciparum Malayan Camp infected in Aotus trivirgatus owl monkey model assessed as cure from parasite infection at >2.5 mg/kg, po qd for 7 days relative to control; format: functional
Plasmodium falciparum [39] = assay: Antimalarial activity against pyrimethamine-sensitive Plasmodium falciparum Vietnam Oak Knoll infected in Aotus trivirgatus owl monkey model assessed as cure from parasite infection at 0.098 to 1.56 mg/kg, po qd for 7 days relative to control; format: functional; settings: dose mg/kg 0.098-1.56
Plasmodium falciparum [40] = assay: Antimalarial activity against pyrimethamine-sensitive Plasmodium falciparum Vietnam Oak Knoll infected in Aotus trivirgatus owl monkey model assessed as cure from parasite infection at 0.6 mg/kg, po qd for 7 days relative to control; format: functional
Enterococcus faecalis = assay: Antibacterial activity against Streptococcus faecalis MGH-2 by gradient plate test; format: functional
Staphylococcus aureus [41] = assay: Antibacterial activity against Staphylococcus aureus UC-96 by gradient plate test; format: functional
Staphylococcus aureus [42] = assay: Antibacterial activity against drug-resistant Staphylococcus aureus S18713 by gradient plate test; format: functional
Pseudomonas aeruginosa = assay: Antibacterial activity against Pseudomonas aeruginosa 28 by gradient plate test; format: functional
Escherichia coli = assay: Antibacterial activity against Escherichia coli Vogel by gradient plate test; format: functional
Shigella sonnei = assay: Antibacterial activity against Shigella sonnei C-10 by gradient plate test; format: functional
Plasmodium falciparum [43] = assay: Antimalarial activity against chloroquine-susceptible, pyrimethamine-resistant Plasmodium falciparum Malayan Camp infected in Aotus trivirgatus owl monkey model assessed as cure from parasite infection at 0.39 to 5 mg/kg, po qd for 7 days relative to control; format: functional; settings: dose mg/kg 0.39-5
Plasmodium gallinaceum [44] = assay: Antimalarial activity against trophozoite-induced Plasmodium gallinaceum infected in white leghorn chicken assessed as increase in mean survival days of host at 5 mg/kg, sc administered 72 hrs after infection relative to control; format: functional; settings: route subcutaneous
Plasmodium gallinaceum [45] = assay: Antimalarial activity against trophozoite-induced Plasmodium gallinaceum infected in white leghorn chicken assessed as increase in mean survival days of host at 2.5 mg/kg, sc administered 72 hrs after infection relative to control; format: functional; settings: route subcutaneous
Plasmodium gallinaceum [46] = assay: Antimalarial activity against trophozoite-induced Plasmodium gallinaceum infected in white leghorn chicken assessed as increase in mean survival days of host at 1.25 mg/kg, sc administered 72 hrs after infection relative to control; format: functional; settings: route subcutaneous
Plasmodium gallinaceum [47] = assay: Antimalarial activity against trophozoite-induced Plasmodium gallinaceum infected in white leghorn chicken assessed as increase in mean survival days of host at 0.63 mg/kg, sc administered 72 hrs after infection relative to control; format: functional; settings: route subcutaneous

Row | Structure (SMILES) | MST (Plasmodium berghei [2]) | MST (Plasmodium berghei [3]) | Activity (Plasmodium berghei [4]) | Activity (Plasmodium berghei [5]) | MST (Plasmodium berghei [6]) | MST (Plasmodium berghei [7]) | MST (Plasmodium berghei [8]) | Activity (Plasmodium berghei [9]) | Activity (Plasmodium berghei [10]) | Activity (Plasmodium berghei [11]) | Activity (Plasmodium berghei [12]) | Activity (Plasmodium berghei [13]) | Activity (Plasmodium berghei [14]) | Activity (Plasmodium gallinaceum [21]) | Activity (Plasmodium gallinaceum [23]) | Activity (Plasmodium gallinaceum [25]) | Activity (Plasmodium gallinaceum [27]) | Activity (Plasmodium gallinaceum [29]) | Activity (Plasmodium gallinaceum [31]) | also measured
1 | Nc1nc(N)c2cc(Sc3ccc(Cl)c(Cl)c3)ccc2n1 | 15.9 days | 11.7 days | inactive | Active | 8.5 days | 5.9 days | 0.9 days | Active | Active | Active | Active | Active | Active | – | – | – | – | – | – | Activity (Plasmodium gallinaceum [1]): Active; Activity (Plasmodium berghei [15]): Active; MST (Plasmodium gallinaceum [16]): 20.8 days
2 | CC(=O)O.Nc1nc(N)c2cc(N(Cc3ccc(Cl)c(Cl)c3)N=O)ccc2n1 | 22.4 days | – | – | – | – | – | – | – | Active | Active | Active | – | Active | Active | Active | Active | Active | Active | Active | Activity (Plasmodium gallinaceum [17]): Active; Activity (Plasmodium gallinaceum [18]): Active; Activity (Plasmodium gallinaceum [19]): Active; MST (Plasmodium gallinaceum [20]): 16.9 days; Activity (Plasmodium gallinaceum [22]): Active; Activity (Gallus gallus): Toxic; Activity (Plasmodium gallinaceum [24]): Active; Activity (Plasmodium gallinaceum [26]): Active; MST (Plasmodium gallinaceum [28]): 0 days; MST (Plasmodium gallinaceum [30]): 0 days; SD90 (Plasmodium berghei [32]): 0.27 mg/kg/day; Ratio (Plasmodium berghei [33]): 270; MST (Plasmodium gallinaceum [34]): 16.9 days; MST (Plasmodium gallinaceum [35]): 16.9 days
3 | CN(C)c1ccc(Sc2ccc3nc(N)nc(N)c3c2)cc1 | – | 10.3 days | inactive | Active | 9.7 days | 5.5 days | 2.5 days | Active | Active | Active | Active | Active | Active | Active | Active | Active | Active | Active | Active | Activity (Plasmodium gallinaceum [36]): Active; Activity (Plasmodium gallinaceum [37]): Active; Activity (Plasmodium falciparum [38]): >50%; Activity (Plasmodium falciparum [39]): >50%; Activity (Plasmodium falciparum [40]): >50%; MIC (Enterococcus faecalis): < 0.25 mg/L; MIC (Staphylococcus aureus [41]): < 0.25 mg/L; MIC (Staphylococcus aureus [42]): < 0.25 mg/L; MIC (Pseudomonas aeruginosa): > 25 mg/L; MIC (Escherichia coli): 1.5 mg/L (≈ 4.82 µM); MIC (Shigella sonnei): 10 mg/L (≈ 32.1 µM); Activity (Plasmodium falciparum [43]): >50%; MST (Plasmodium gallinaceum [44]): 19.8 days; MST (Plasmodium gallinaceum [45]): 12.6 days; MST (Plasmodium gallinaceum [46]): 10.4 days; MST (Plasmodium gallinaceum [47]): 6.6 days
